Results published in PubChem BioAssay AID2060887 (Molecular Pharmacology Branch, DTP, NCI, 2025).
Values joined by “and” are separate entries in the source; they are usually repeats but may differ in a detail not shown here. Equal values may be shown once.

Test system: 782815-120-R-J1-PDC complex spheroid viability
Test: Anticancer human tumor 782815-120-R-J1-PDC patient-derived colon adenocarcinoma cell line growth inhibition [RAS]
Conditions: for viability, T/C: stronger effect = lower value
Text: RAS pathway inhibitors in Combinations in Complex Spheroids
A high-throughput screen of multi-cell type tumor spheroids was designed to identify active combinations of RAS pathway inhibitors and targeted small molecules. Complex spheroids include a stromal component modeled by human endothelial cells (HUVEC) and fibroblasts modeled by human mesenchymal stem cells (MSCs). The concentration ranges selected for each drug and investigational agent were based upon clinically achievable concentrations if the clinical Cmax of the agent was known.
Compounds. The drugs and investigational agents: abemaciclib (NSC768073), cobimetinib (NSC768068), divarasib (GDC6063, NSC841802), docetaxel (NSC628503), GDC-1971 (RLY-1971, NSC841576), gemcitabine (NSC613327), inavolisib (NSC800729), ipatasertib (NSC767898), KB-0742 (NSC834161), MRTX-1133 (NSC836407), osimertinib (NSC779217), RMC-4630 (NSC839698), RMC-6236 (NSC851965), RMC-6291 (NSC852671), Ro-3306 (NSC812927), sapanisertib (NSC764658), SN-38 (NSC673596), staurosporine (NSC755774), SY5609 (NSC837396), and tovorafenib (DAY101, NSC766906), were obtained from the National Cancer Institute (NCI) Developmental Therapeutics Program Chemical Repository. The FDA-approved anticancer drug set is available from the NCI Developmental Therapeutics Program. […] The stock solutions were prepared in dimethyl sulfoxide (DMSO, Sigma-Aldrich, St. Louis, MO, cat. D2650) at 800-fold the tested concentration and stored at -70 degrees C prior to their use. All drugs and investigational agents were tested over a range starting from a high concentration at or near the clinical Cmax and decreasing in half-log increments. If the clinical Cmax for an agent had not been determined, the highest concentration tested was 10 microM.
Cell Culture. All cells were maintained in an incubator at 37 degrees C and 5% CO2 with 95% humidity. The PDC lines were cultured according to standard operating procedures established by the NCI PDMR. All PDCs were thawed and cultured in Matrigel-coated flasks prepared with a working solution of 1X Ham's F-12 nutrient mix, without supplementation (Invitrogen, Waltham, MA, cat. 11765054), 100 U/mL penicillin-streptomycin (Invitrogen, cat. 15140122), and 2.5% Matrigel (Corning Inc., Corning, NY, cat. 354248) for the first three passages. The 362531-283-R-J2-PDC and 782815-120-R-J1-PDC lines were cultured in 6C/Colon 1B media, which includes advanced DMEM/F-12 (Thermo Fisher Scientific, cat. 12634028), 10 mM HEPES (Thermo Fisher Scientific, cat. 15630080), 1X GlutaMAX supplement (Thermo Fisher Scientific, cat. 35050061), 0.1 mg/mL primocin (InvivoGen, San Diego, CA, cat. ant-pm-2), 10% defined fetal bovine serum, heat inactivated (HyClone Laboratories Inc., Logan, UT, cat. SH30070.03HI), 50% L-WRN conditioned media (ATCC, cat. CRL-3276), 1.25 mM N-Acetyl-L-cysteine (Sigma-Aldrich, cat. A9165), 10 mM nicotinamide (Sigma-Aldrich, cat. N0636), 1X B-27 supplement (Thermo Fisher Scientific, cat. 17504044), 1X N-2 supplement (Thermo Fisher Scientific, cat. 17502048), 50 ng/mL human EGF (Thermo Fisher Scientific, cat. PHG0311), and 10 microM Y-27632 dihydrochloride (Tocris Bioscience, cat. 1254). The K12877-001-R-J1-PDC line was cultured in 6I media, which includes all 6C/Colon 1B media plus 10 ng/mL human FGF-10 (PeproTech, cat. 100-26), 1 ng/mL human FGF-2 (PeproTech, cat. 100-18B), 1 µM prostaglandin E2 (Tocris Bioscience, cat. 2296), […] hydrocortisone (Sigma-Aldrich, cat. H4001), and […] bovine insulin (Sigma-Aldrich, cat. I6634). The K86415-001-R-J1-PDC line was cultured in 6D media, which includes all 6C/Colon 1B media components minus the L-WRN conditioned media. The 485176-168-R4-J1-PDC was cultured in PANC media, which includes all 6C/Colon 1B media plus 100 ng/mL human FGF-10 (PeproTech, cat. 100-26), 500 nM SB-431542 (Selleckchem, cat. S1067), and 10 nM gastrin (Tocris Bioscience, cat. 3006). […]

[1] = compound alone, run of 07/09/2024
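Further: spheroids exposed to compounds for 7 days before reading.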
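Wherever viability, T/C is given: 100% = DMSO vehicle control viability.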

Compound | viability, T/C (compound 0.0316 µM) | viability, T/C (compound 0.1 µM) | viability, T/C (compound 0.316 µM) | viability, T/C (compound 1 µM) | viability, T/C (compound 3.16 µM) | viability, T/C (compound 10 µM) | IC50 (curve of compound) | viability, T/C (compound 0.00316 µM) | viability, T/C (compound 0.01 µM) | viability, T/C (compound 0.000949 µM) | viability, T/C (compound 0.003 µM) | viability, T/C (compound 0.00949 µM) | viability, T/C (compound 0.03 µM) | viability, T/C (compound 0.0949 µM) | viability, T/C (compound 0.3 µM) | IC50 [1]
CCC(CC)c1cc(NC2CCC(N)C2)n2nccc2n1 (centres undefined) | 103% [middle of 4 runs] | 93.2% [middle of 4 runs] | 103% [middle of 4 runs] | 99.6% [middle of 4 runs] | 34.1% [middle of 4 runs] | 1.98% [middle of 4 runs] | 2.34 µM [middle of 4 runs] |  |  |  |  |  |  |  |  | 
CCN1CCN(Cc2ccc(Nc3ncc(F)c(-c4cc(F)c5nc(C)n(C(C)C)c5c4)n3)nc2)CC1 | 93.5% and 96.4% and 101% (2×) | 100% [middle of 4 runs] | 113% [middle of 4 runs] | 125% [middle of 4 runs] |  |  | > 1000 nM | 102% [middle of 4 runs] | 99.6% [middle of 4 runs] |  |  |  |  |  |  | 
CCc1c2c(nc3ccc(O)cc13)-c1cc3c(c(=O)n1C2)COC(=O)[C@]3(O)CC |  |  |  |  |  |  | 4.02 nM [middle of 4 runs] |  |  | 100% [middle of 4 runs] | 59.1% [middle of 4 runs] | 20.2% [middle of 4 runs] | 9.92% [middle of 4 runs] | 3.66% [middle of 4 runs] | 1.71% [middle of 4 runs] | 
CCn1c(-c2cc(N3CCN(C)CC3)cnc2C(C)OC)c2c3cc(ccc31)-c1csc(n1)CC(NC(=O)C1CC1C)C(=O)N1CCCC(N1)C(=O)OCC(C)(C)C2 (centres undefined) |  |  |  |  |  |  |  |  |  | 84.7% [middle of 8 runs] | 60.1% [middle of 8 runs] | 35.1% [middle of 8 runs] | 20.7% [middle of 8 runs] | 16.4% [middle of 8 runs] | 14.7% [middle of 7 runs] | 4.66 nM [middle of 8 runs]
CCn1c(-c2cccnc2C(C)OC)c2c3cc(ccc31)N1CCOC(CC(NC(=O)C(C(C)C)N(C)C(=O)C3(F)CCN(C(=O)C#CC(C)(C)N(C)C)CC3)C(=O)N3CCCC(N3)C(=O)OCC(C)(C)C2)C1 (centres undefined) |  |  |  |  |  |  |  |  |  | 95.4% [middle of 8 runs] | 100% [middle of 8 runs] | 95.8% [middle of 8 runs] | 98.5% [middle of 8 runs] | 96.5% [middle of 8 runs] | 89.1% [middle of 8 runs] | > 300 nM
C[C@@H](NC(=O)c1ncnc(N)c1Cl)c1ncc(C(=O)Nc2cc(C(F)(F)F)c(Cl)cn2)s1 | 105% [middle of 4 runs] | 99.3% [middle of 4 runs] | 98.1% [middle of 4 runs] |  | 83% [middle of 4 runs] | 62.2% [middle of 4 runs] | > 10000 nM |  |  |  |  |  |  |  |  | 
Nc1ccn(C2OC(CO)C(O)C2(F)F)c(=O)n1 (centres undefined) |  | 40.8% [middle of 4 runs] | 27% [middle of 4 runs] | 25.6% [middle of 4 runs] |  |  | 60.1 nM [middle of 4 runs] | 91.4% [middle of 4 runs] | 71.8% [middle of 4 runs] |  |  |  |  |  |  | 
O=C(c1ccc(F)c(F)c1Nc1ccc(I)cc1F)N1CC(O)([C@@H]2CCCCN2)C1 | 66.7% [middle of 4 runs] | 38.3% [middle of 4 runs] | 19.9% [middle of 4 runs] | 3.13% [middle of 4 runs] |  |  | 66 nM [middle of 4 runs] | 91.5% [middle of 4 runs] | 82.9% [middle of 4 runs] |  |  |  |  |  |  | 
